Data: patent US20240317761A1, “PHARMACEUTICALLY ACCEPTABLE SALT OF MOR RECEPTOR AGONIST, AND POLYMORPH THEREOF AND USE THEREOF” (SHANGHAI HAIYAN PHARMACEUTICAL TECHNOLOGY CO., LTD., priority 2021, published 2024)

Legend:
[1] = target: T1, OPRM1 (MOR) in PathHunter CHO-K1 OPRM1 β-Arrestin Cell Line (Homo sapiens, UniProt P35372); assay: HTRF-cAMP cell assay; format: cell-based
T1 construct: host or cells: CHO-K1 (PathHunter engineered line, lot 13K0402)
Method: The cell line used in the following tests was PathHunter® CHO-K1 OPRM1 β-Arrestin Cell Line; origin: DiscoverX, No: 93-0213 C2; lot: 13K0402.
The reagents used, their suppliers, article numbers, and storage temperatures are as follows: • Assay Complete™ Cell Culture Kit 107, DiscoverX, 92-3107G, −20° C.; • AssayComplete™ Thawing Reagent, DiscoverX, 92-4002TR, −20° C.; • AssayComplete™ Cell Detachment Reagent, DiscoverX, 92-0009, −20° C.; • Assay Complete™ Cell Plating Reagent, DiscoverX, 93-0563R2, −20° C.; • PathhunterDetection Kit, DiscoverX, 93-0001, −20° C.; • PBS(1×)0.0067M(PO4), Hyclone, SH30256.01, 4° C.; • DMSO, Sigma, D5879-100 ML, ambient temperature; • NKH477, Sigma, 1603, −20° C.; and • IBMX, Tocris, 15879, −20° C.
(§1) The instruments used, their models and suppliers are as follows: • Countsatr BioMed, IM1200, ALIT; • Microscope, IX51, OLYMPUS; • Centrifuge, 5804, Eppendorf; • Thermostatic Water Bath, DK-S420, ShanghaiShenxian thermostatic equipment factory; • Cell Incubator, 3111, Thermo; • Biological Safety Cabinet, BSC-1300IIA2, AIRTECH; • OptiPlate-384White Opaque, 6007290, Perkin Elmer; • Multimode plate Reader, Victor X5, PerkinElmer; • Culture Plate-384 White Opaque, TC-treated, 6007680, PerkinElmer.
1. Cell passaging steps a to h were repeated until the cells passed to the P8 generation. Cells were counted and resuspended in 2×/1 mM IBMX stimulation buffer to a cell density of 1.2*10^6/ml.
2. 1.2*10^6/ml of cell solution was seeded in a 384-well plate in a volume of 10 μl per well (i.e. 12000 cells per well) by using a multichannel pipettor.
1. Relevant reagents were prepared and the compounds were prepared according to the drug dilution preparation table.
a. […]
g. The plate was read by HTRF.
After 60 minutes of incubation, for all samples, reading plates were detected by homogeneous time-resolved fluorescence method.
The data were exported from the corresponding software in the computer connected with the multi-function plate reader, including two signal values of 665 nm and 620 nm. The ratio is calculated as ratio=665 nm signal value/620 nm signal value×10000. […]

[2] = target: T1, OPRM1 (MOR) in PathHunter CHO-K1 OPRM1 β-Arrestin Cell Line; assay: β-Arrestin cell assay; format: cell-based
Method: The cell line used in the following tests was PathHunter® CHO-K1 OPRM1 β-Arrestin Cell Line; origin: DiscoverX, No: 93-0213 C2; lot: 13K0402. […]
as §1, with “PerkinElmer. […]” for “PerkinElmer.”
1. 20 μl of the cell suspension was pipetted using a pipette and the number of the cells was measured using a cell counter. […]
3. At the end of incubation, the plates were read using a multi-function plate reader.
The data were exported from the corresponding software in the computer connected with the multi-function plate reader, and the data were analyzed by using GraphPad Prism software. […]

[3] = maximum effect relative to morphine = 100%

T1 sequence (P35372 whole entry): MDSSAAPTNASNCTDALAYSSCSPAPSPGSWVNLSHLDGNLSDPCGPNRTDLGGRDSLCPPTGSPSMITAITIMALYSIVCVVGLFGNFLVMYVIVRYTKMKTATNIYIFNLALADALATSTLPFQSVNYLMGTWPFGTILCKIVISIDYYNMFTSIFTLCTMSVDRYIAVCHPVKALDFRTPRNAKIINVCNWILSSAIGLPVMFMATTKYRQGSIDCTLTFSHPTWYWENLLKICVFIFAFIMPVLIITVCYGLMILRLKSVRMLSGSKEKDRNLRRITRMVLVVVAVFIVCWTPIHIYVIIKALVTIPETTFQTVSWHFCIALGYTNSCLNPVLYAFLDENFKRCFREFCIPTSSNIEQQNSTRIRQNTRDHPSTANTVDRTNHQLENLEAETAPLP

Row | SMILES | EC50 [1] [nM] | Emax [1, 3] [%] | Emax [2, 3] [%] | bias (cAMP versus β-arrestin) ([2]; compared with comparative compound D1, from Tables 5 and 6)
1 | CC(C)C1CCC(NCC[C@@]2(c3ccccn3)CCOC3(CCCC3)C2)c2ccnn21 (some centres unmarked) [Comparative compound D1] | 19 | 52.6 | 28.3 | 
2 | CC(C)[C@@H]1C[C@H](NCC[C@@]2(c3ccccn3)CCOC3(CCCC3)C2)c2ccnn21 [Compound of formula X, (4S,6S)-6-isopropyl-N-(2-((R)-9-(pyridin-2-yl)-6-oxaspiro[4.5]decane-9-yl)ethyl)-5,6-dihydro-4H-pyrrolo[1,2-b]pyrazol-4-amine] | 6 |  |  | better bias
